In this experiment the target is T1, chymotrypsin-like activity of the proteasome (Mus musculus, UniProt O55234).
T1 construct: measurement of proteasome activity in whole blood (primarily erythrocytes); from tissue; host or cells: whole blood (primarily erythrocytes), adrenal, liver and heart of BALB/C mice
T1 sequence (O55234 60-264): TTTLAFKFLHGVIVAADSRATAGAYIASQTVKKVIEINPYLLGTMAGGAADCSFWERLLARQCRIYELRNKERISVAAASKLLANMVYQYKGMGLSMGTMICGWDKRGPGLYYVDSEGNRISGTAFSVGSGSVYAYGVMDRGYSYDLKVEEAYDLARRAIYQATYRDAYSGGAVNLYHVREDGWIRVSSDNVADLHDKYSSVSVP
As to the kind of experiment: Pharmacodynamic response: proteasome activity in whole blood, adrenal, liver and heart (LLVY-AMC substrate). The experiment is classed as in vivo, BALB/C mice. The following applies: mice, single i.v. dose, whole blood (primarily erythrocytes), up to 24 hours. As to the method: The pharmacodynamic response of carfilzomib formulated in SBE-B-CD (CFZ SBE-B-CD) (using a non-liposomal, injectable composition of carfilzomib formulated in 10% sulfobutylether beta cyclodextrin (SBE-B-CD), 10 mM Citrate, pH 3.5 (see, e.g., U.S. Patent Publication Nos. 2011/0236428)), empty liposomes (Composition D), liposomes comprising CFZ (L-CFZ, Composition C), and pegylated liposomes comprising (pL-CFZ, Composition E) was evaluated in BALB/C mice following a single intravenous bolus administration.
The mice (three mice per time point) were administered a dose of 10 mg/kg in a dose volume of 5 mL/kg. […] The pharmacodynamic response was determined by measurement of proteasome activity in whole blood (primarily erythrocytes) (see FIG. 2A), adrenal (see FIG. 2B), liver (see FIG. 2C), and heart (see FIG. 2D), using a fluorogenic substrate (LLVY-AMC [Leu-Leu-Val-Tyr-AMC {AMC=7-amido 4-methylcoumarin}]; as described by Lightcap E S, McCormack T A, Pien C S, et al., Clin. Chem. 46:673-683 (2000)) to quantitate the chymotrypsin-like activity of the proteasome. […] Three tissue samples were evaluated per time point for each tissue from each mouse.
The pharmacodynamic response of liposomal compositions comprising liposomes comprising an aqueous core loaded with CFZ complexed with SBE-B-CD was evaluated in BALB/C mice following a single intravenous bolus administration. […]

As to `CC(C)C[C@H](NC(=O)[C@H](CCc1ccccc1)NC(=O)CN1CCOCC1)C(=O)N[C@@H](Cc1ccccc1)C(=O)N[C@@H](CC(C)C)C(=O)[C@@]1(C)CO1` [carfilzomib], the “recovery of proteasome activity in blood” value was “no recovery”.

(Values after US10022326B2, “Liposomal compositions of epoxyketone-based proteasome inhibitors” (ONYX THERAPEUTICS, INC., priority 2012, dated 2018).)
